The structures appear in SMILES notation. Values joined by “and” are separate entries in the source; they are usually repeats but may differ in a detail not shown here. Identical values can stand only once.

For the experiment, the system named is Swiss mice, Sarcoma 180 sc, mean tumor weight T/C. The experiment can be described thus: NCI In Vivo Anticancer Drug Screen. Data for tumor model Sarcoma 180 (subcutaneous) in Swiss mice. The settings on record: endpoint: mean tumor weight, higher = larger tumour. An outline of the steps: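 Readout is the ratio of treated-group measurement to vehicle-control measurement (T/C), based on survival or tumor size in mice carrying transplanted tumors.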

In general, T/C refers to the result in the treated group divided by that in the control group, in per cent. For the compound `C[C@]12CC[C@H](OC3OC(CO)C(O)C(O)C3O)C[C@H]1CC[C@@H]1[C@@H]2CC[C@]2(C)[C@@H](C3=CCOC3=O)CC[C@]12O` (some centres undefined), the T/C runs as follows: (dose: 0.01 mg/kg/injection, schedule: Q01DX007 (ip), vehicle: carboxymethylcellulose (CMC)) 60 % of control; (dose: 0.05 mg/kg/injection, schedule: Q01DX007 (ip), vehicle: carboxymethylcellulose (CMC)) 40 % of control; (dose: 0.12 mg/kg/injection, schedule: Q03DX003 (ip), vehicle: carboxymethylcellulose (CMC)) 81 % of control; (dose: 0.12 mg/kg/injection, schedule: Q#A X014 (ip), vehicle: carboxymethylcellulose (CMC)) 99 % of control; (dose: 0.2 mg/kg/injection, schedule: Q01DX007 (ip), vehicle: carboxymethylcellulose (CMC)) 46 % of control; (dose: 0.25 mg/kg/injection, schedule: Q01DX007 (ip), vehicle: saline) 82 % of control. In addition, the T/C (dose: 0.25 mg/kg/injection, schedule: Q01DX007 (ip), vehicle: water) was 86 % of control; the T/C (dose: 0.25 mg/kg/injection, schedule: Q03DX003 (ip), vehicle: carboxymethylcellulose (CMC)) is 75 % of control; the T/C (dose: 0.25 mg/kg/injection, schedule: Q#A X014 (ip), vehicle: carboxymethylcellulose (CMC)) is 57 % of control; the T/C (dose: 0.26 mg/kg/injection, schedule: Q01DX007 (ip), vehicle: saline) was 49 % of control and 51 % of control; the T/C (dose: 0.38 mg/kg/injection, schedule: Q03DX003 (ip), vehicle: carboxymethylcellulose (CMC)) is 105 % of control and 108 % of control; the T/C (dose: 0.5 mg/kg/injection, schedule: Q01DX007 (ip), vehicle: saline) was 55 % of control. Further, the T/C is 90 % of control (dose: 0.5 mg/kg/injection, schedule: Q01DX007 (ip), vehicle: water); 92 % of control (dose: 0.5 mg/kg/injection, schedule: Q03DX003 (ip), vehicle: carboxymethylcellulose (CMC)); 53 % of control (dose: 0.5 mg/kg/injection, schedule: Q#A X014 (ip), vehicle: carboxymethylcellulose (CMC)); 34 % of control and 57 % of control (dose: 0.6 mg/kg/injection, schedule: Q01DX007 (ip), vehicle: saline); 27 % of control (dose: 0.8 mg/kg/injection, schedule: Q01DX007 (ip), vehicle: carboxymethylcellulose (CMC)); 47 % of control and 51 % of control (dose: 0.9 mg/kg/injection, schedule: Q01DX007 (ip), vehicle: saline). The T/C is 13 % of control (dose: 0.96 mg/kg/injection, schedule: Q01DX007 (ip), vehicle: saline); 28 % of control (dose: 1.0 mg/kg/injection, schedule: Q01DX007 (ip), vehicle: carboxymethylcellulose (CMC)); 40 % of control (dose: 1.0 mg/kg/injection, schedule: Q01DX007 (ip), vehicle: saline); 40 % of control (dose: 1.0 mg/kg/injection, schedule: Q01DX007 (ip), vehicle: water); 35 % of control (dose: 1.0 mg/kg/injection, schedule: Q#A X014 (ip), vehicle: carboxymethylcellulose (CMC)); 32 % of control and 38 % of control (dose: 1.3 mg/kg/injection, schedule: Q01DX007 (ip), vehicle: saline). Also, the T/C is 13 % of control (dose: 1.9 mg/kg/injection, schedule: Q01DX007 (ip), vehicle: saline); 22 % of control and 43 % of control (dose: 2.0 mg/kg/injection, schedule: Q01DX007 (ip), vehicle: saline); 89 % of control (dose: 10.4 mg/kg/injection, schedule: Q01DX007 (oral), vehicle: carboxymethylcellulose (CMC)); 95 % of control (dose: 16.0 mg/kg/injection, schedule: Q01DX007 (oral), vehicle: carboxymethylcellulose (CMC)); 110 % of control (dose: 24.0 mg/kg/injection, schedule: Q01DX007 (oral), vehicle: carboxymethylcellulose (CMC)); 74 % of control (dose: 36.0 mg/kg/injection, schedule: Q01DX007 (oral), vehicle: carboxymethylcellulose (CMC)). The T/C was 101 % of control (dose: 54.0 mg/kg/injection, schedule: Q01DX007 (oral), vehicle: carboxymethylcellulose (CMC)); 105 % of control (dose: 80.0 mg/kg/injection, schedule: Q01DX007 (oral), vehicle: carboxymethylcellulose (CMC)); 100 % of control (dose: 81.0 mg/kg/injection, schedule: Q01DX007 (oral), vehicle: carboxymethylcellulose (CMC)); 91 % of control (dose: 120.0 mg/kg/injection, schedule: Q01DX007 (oral), vehicle: carboxymethylcellulose (CMC)); 82 % of control (dose: 150.0 mg/kg/injection, schedule: Q01DX007 (oral), vehicle: carboxymethylcellulose (CMC)); 85 % of control (dose: 160.0 mg/kg/injection, schedule: Q01DX007 (oral), vehicle: carboxymethylcellulose (CMC)). Also, the T/C was 97 % of control (dose: 300.0 mg/kg/injection, schedule: Q01DX007 (oral), vehicle: carboxymethylcellulose (CMC)); 96 % of control (dose: 500.0 mg/kg/injection, schedule: Q01DX007 (oral), vehicle: carboxymethylcellulose (CMC)); 73 % of control and 89 % of control (dose: 15.0 micrograms/kg/injection, schedule: Q01DX007 (ip), vehicle: saline); 65 % of control and 77 % of control (dose: 120.0 micrograms/kg/injection, schedule: Q01DX007 (ip), vehicle: saline); 85 % of control and 99 % of control (dose: 125.0 micrograms/kg/injection, schedule: Q01DX007 (ip), vehicle: carboxymethylcellulose (CMC)); 73 % of control and 84 % of control (dose: 240.0 micrograms/kg/injection, schedule: Q01DX007 (ip), vehicle: saline). Also, the T/C is 72 % of control and 79 % of control (dose: 250.0 micrograms/kg/injection, schedule: Q01DX007 (ip), vehicle: carboxymethylcellulose (CMC)); 47 % of control and 62 % of control (dose: 500.0 micrograms/kg/injection, schedule: Q01DX007 (ip), vehicle: carboxymethylcellulose (CMC)); 33 % of control (dose: 960.0 micrograms/kg/injection, schedule: Q01DX007 (ip), vehicle: saline); 68 % of control (dose: 2000.0 micrograms/kg/injection, schedule: Q01DX007 (ip), vehicle: carboxymethylcellulose (CMC)).
As for `CS(=O)(=O)OCCCl`, the T/C is 92 % of control (dose: 6.67 mg/kg/injection, schedule: Q#A X014 (ip), vehicle: carboxymethylcellulose (CMC)); 117 % of control (dose: 13.35 mg/kg/injection, schedule: Q01DX007 (ip), vehicle: carboxymethylcellulose (CMC)); 95 % of control (dose: 13.35 mg/kg/injection, schedule: Q#A X014 (ip), vehicle: carboxymethylcellulose (CMC)); 106 % of control (dose: 26.7 mg/kg/injection, schedule: Q01DX007 (ip), vehicle: carboxymethylcellulose (CMC)); 86 % of control (dose: 26.7 mg/kg/injection, schedule: Q#A X014 (ip), vehicle: carboxymethylcellulose (CMC)); 100 % of control (dose: 53.4 mg/kg/injection, schedule: Q01DX007 (ip), vehicle: carboxymethylcellulose (CMC)). Moreover, the T/C (dose: 106.8 mg/kg/injection, schedule: Q01DX007 (ip), vehicle: carboxymethylcellulose (CMC)) was 94 % of control.
As to `Cc1cc2c(c3oc(C4(C)OC4C4OC4C)cc(=O)c13)C(=O)c1c(O)c(C3CC(C)(N(C)C)C(O)C(C)O3)cc(C3CC(N(C)C)C(O)C(C)O3)c1C2=O` (centres undefined), the T/C was 100 % of control (dose: 0.05 mg/kg/injection, schedule: Q01DX007 (sc), vehicle: other) and 79 % of control (dose: 0.1 mg/kg/injection, schedule: Q01DX007 (sc), vehicle: other).
As for `CCCCSc1nc(N)nc2nc[nH]c12`, the T/C was 89 % of control (dose: 18.75 mg/kg/injection, schedule: Q#A X014 (ip), vehicle: methylcellulose (MC)); 78 % of control (dose: 37.5 mg/kg/injection, schedule: Q#A X014 (ip), vehicle: methylcellulose (MC)); 102 % of control (dose: 75.0 mg/kg/injection, schedule: Q#A X014 (ip), vehicle: methylcellulose (MC)); 59 % of control (dose: 150.0 mg/kg/injection, schedule: Q#A X014 (ip), vehicle: methylcellulose (MC)).
As to `CCCCN(C)N=Nc1n[nH]nc1C(N)=O`, the T/C by setting is: (dose: 16.0 mg/kg/injection, schedule: Q01DX007 (ip), vehicle: carboxymethylcellulose (CMC)) 93 % of control; (dose: 31.0 mg/kg/injection, schedule: Q01DX007 (ip), vehicle: carboxymethylcellulose (CMC)) 85 % of control; (dose: 62.0 mg/kg/injection, schedule: Q01DX007 (ip), vehicle: carboxymethylcellulose (CMC)) 38 % of control.
On to `CC(C)CN(C)/N=N/c1nc[nH]c1C(N)=O`, for which the T/C is 92 % of control (dose: 25.0 mg/kg/injection, schedule: Q01DX007 (ip), vehicle: carboxymethylcellulose (CMC)) and 41 % of control (dose: 50.0 mg/kg/injection, schedule: Q01DX007 (ip), vehicle: carboxymethylcellulose (CMC)).

Source of the values: PubChem BioAssay AID342 (DTP/NCI, 2004).
